Data from US10940240B2, “Catheter locking solution and catheter locking therapy” (Medical Components, Inc., priority 2016, dated 2021).

Test system: Staphylococcus aureus CIP 65.25 (methicillin resistant)
Assay: anti-biofilm assay on 24 h biofilms formed on Chronoflex catheter segments in microfermentors
Format: cell-based
Conditions: for effect in lysing the bacteria compared with 15 v/v % EtOH: EtOH alone; for number of viable cells on catheter segment (Moyenne): biofilm on catheter segment exposed to solution for 24 hours at 37° C., triplicate, limit of detection 10 CFU per KT segment; for effect on bacterial survival / lysis of bacterial cells: biofilm exposed 24 hours at 37° C., complete lysis = under the threshold of detection (10 CFU per KT segment)
Procedure: For example, preliminary assay testing of anti-biofilm properties of a TCEA solution comprising a 10.0 w/v % concentration of trisodium citrate at and 15.0, 20.0 and 25.0 v/v % concentrations of ethyl alcohol (i.e., ethanol or EtOH) were conducted. The testing was performed in the following manner.
Ethanol 15%, 20% and 25% (v/v)+trisodium citrate 10% (w/v)
Controls: Ethanol 15%, 20% and 25% • Trisodium citrate 10% • Water for injection The material tested were segments, each 1 centimeter long, of sterile catheters Chronoflex (“catheter segments”). The strains used were Staphylococcus aureus CIP 65.25 (methicillin resistant).
Biofilms were formed in aerated microfermentors with catheter segments fixed onto an internal removable glass slide of the microfermentors. Strains from frozen stocks were cultivated in Trypticase Soja broth (“TSB”). An inoculum of 10^8 cells was used to inoculate microfermentors containing the catheter segments. A continuous flow of 54 milliliters per hour (“mL/h”) of TSB and constant aeration with sterile pressed air at 0.3 bar were used to obtain continuous flow-through culture conditions. After 24 hours of incubation, the catheter segments were removed from the incubator and separated from their respective microfermentor device. Each catheter segment was then carefully rinsed in 1 mL of saline.
To determine the number of viable cells within the biofilms formed onto the catheter segments before being subjected to or made to be in contact with the test solutions (i.e., before treatment), the biofilms (triplicate for each strain) were resuspended in TSB by sonication and vortexing. Serial dilutions of the resulting suspensions were performed and plated onto appropriate agar plates to determine the number of viable cells after overnight incubation at 37 degrees Celsius (“° C.”).
In parallel, catheter segments to be tested were placed in a tube containing 1 mL of the different lock solutions: (i) ethanol at 15%, 20% and 25% (vol/vol); (ii) trisodium citrate at 10% (vol/vol); (iii) ethanol/tri sodium citrate mixing solutions (15%-10%, 20%-10%, 25%-10% (vol/vol)), wherein ethanol concentrations were 15%, 20%, and 25%, and trisodium citrate concentration was 10%; and (iv) water for injection as control. For every organism, the experiments were repeated in triplicate, and during each treatment assay catheter segments were exposed to the different solutions for 24 hours at 37° C. Subsequently, the catheter segments were removed, rinsed once with saline, and the number of adherent viable microorganisms determined, as described above. In FIG. 1, the number of viable cells is expressed as Colony Forming Unit (“CFU”), and the bacteria count is expressed as a decimal logarithm, log 10. (Note: FIG. 1 expresses the CFU as UFC, which is an acronym for unite formant colonie and is the same unit of measure as CFU.). The limit of detection in the experimental conditions is 10 CFU per KT segment, thus the threshold of detection is 10 CFU per KT segment. KT is a catheter sample used during testing, and its length can range from 3 to 5 centimeters. A KT can be a specimen of a catheter that have been cut (1 meter long usually) and placed into a microfermentor apparatus so that biofilms are formed at a surface of the catheter. Once the biofilm is formed and place into contact with the catheter lock solution to be tested, a measured the number of bacterial viable cells still present at the surface of the catheter is obtained. The limit of detection is 10 Colony Forming Units per specimen of catheter.
During the study, the disclosed catheter locking solution had been tested to ascertain whether it can eradication viable bacterial and prevent regrowth of biofilm. […] The catheter locking solution had been tested against Staphylococcus aureus (methicillin resistant).

Row | Molecule | effect in lysing the bacteria compared with 15 v/v % EtOH | number of viable cells on catheter segment (Moyenne) [CFU] | effect on bacterial survival / lysis of bacterial cells | effect on bacterial survival / lysis of bacterial cells (listed as EtOH alone (at 15 v/v %)) | effect on bacterial survival / lysis of bacterial cells (listed as EtOH alone, at 15 v/v % concentration) | effect on bacterial survival / lysis of bacterial cells (listed as Ethyl alcohol at a concentration of 15.0 v/v %) | bacterial cells after treatment (decreased from 1.00 E+07) (preliminary in vitro testing)
1 | ethyl alcohol [EtOH 25% (v/v)] | significantly greater effect in lysing the bacteria | 1.00E+01 | – | – | – | – | –
2 | ethyl alcohol [EtOH 20% (v/v)] | significantly greater effect in lysing the bacteria | 1.00E+01 | – | – | – | – | –
3 | O=C([O-])CC(O)(CC(=O)[O-])C(=O)[O-].[Na+].[Na+].[Na+] [citrate 10% (m/v), trisodium citrate] | – | 3.64E+06 | no effect on the bacterial survival | – | – | – | –
4 | ethyl alcohol [EtOH 15% (v/v)] | – | 2.12E+02 | – | did not lyse all the bacterial cells | did not lyse all the bacterial cells | did not lyse all bacterial cells | 1.00E+02
